Reference: patent US20240067657A1, “AMIDO-SUBSTITUTED PYRIDYL COMPOUNDS AND METHODS OF USE THEREOF FOR THE TREATMENT OF HERPESVIRUSES” (Merck Sharp & Dohme LLC, priority 2020, published 2024)
Where two headings read alike, the source gives them in different places.

Assays:
[1] = test system: HCMV Strain AD169 in MRC-5 cells; assay: Viral qPCR assay HCMV (V0/V1, V2/V3), EC50; assay type: cell-based
Method in brief: (§1)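 Infected cells added to compounds (10-point 3-fold series), ~72 h at 37 °C, then lysed; viral genomes by TaqMan qPCR against plasmid standard, normalized to PPIA in V0/V1 only, EC50 from 4-parameter fit. HCMV AD169, 0.05-0.1 pfu/cell, ± 50% FBS; VZV 0.04-0.1 pfu/cell; HSV-1 F 0.0005-0.004 pfu/cell.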

[2] = test system: VZV in MeWo or MRC5 cells; assay: Viral qPCR assay VZV (V0/V1, V2/V3), EC50; assay type: cell-based
Method in brief: as §1

[3] = target: T1, varicella zoster virus DNA polymerase (Varicella-zoster virus, UniProt P09252); assay: VZV polymerase assay (AlphaLISA, IC50); assay type: biochemical; details: polymerase assay of Example 190
T1 construct: made in house; host or cells: SF21 insect cells (baculovirus vector)
Method in brief: (§2)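 Baculovirus-expressed polymerase (HCMV 0.2 nM, VZV 0.4 nM final) preincubated 30 min at room temperature with compound in pH 7.5 HEPES buffer; reaction started with 1.6 nM DIG-primer/template and nM dNTPs including biotin-dUTP, run 60 min at 37° C. Incorporation detected by AlphaLISA; IC50 from 4-parameter fit.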

[4] = target: T2, Human cytomegalovirus DNA polymerase (Human cytomegalovirus, UniProt P08546); assay: HCMV polymerase assay (AlphaLISA, IC50); assay type: biochemical; details: polymerase assay of Example 190
T2 construct: made in house; host or cells: SF21 insect cells (baculovirus vector)
Method in brief: as §2

[5] = test system: HSV-1 Strain F in Vero or MRC5 cells; assay: Viral qPCR assay HSV-1 (V0/V1, V2/V3), EC50; assay type: cell-based
Method in brief: as §1

[6] = Human betaherpesvirus 5, AD169, MRC5, viral qPCR assay of Example 191, read-out: HCMV Cell (EC50)
[7] = Human alphaherpesvirus 3, MRC5, MRC5 cells, 10%, read-out: VZV Cell (EC50) MRC5 10%
[8] = Human alphaherpesvirus 1, MRC5, MRC5 cells, 10%, read-out: HSV1 Cell (EC50) MRC5 10%
[9] = Human alphaherpesvirus 1, Vero, VERO cells, 10%, read-out: HSV1 Cell (EC50) VERO 10%
[10] = Human alphaherpesvirus 3, MeWo, MEWO cells, 10%, read-out: VZV Cell (EC50) MEWO 10%

T1 sequence (P09252 whole entry): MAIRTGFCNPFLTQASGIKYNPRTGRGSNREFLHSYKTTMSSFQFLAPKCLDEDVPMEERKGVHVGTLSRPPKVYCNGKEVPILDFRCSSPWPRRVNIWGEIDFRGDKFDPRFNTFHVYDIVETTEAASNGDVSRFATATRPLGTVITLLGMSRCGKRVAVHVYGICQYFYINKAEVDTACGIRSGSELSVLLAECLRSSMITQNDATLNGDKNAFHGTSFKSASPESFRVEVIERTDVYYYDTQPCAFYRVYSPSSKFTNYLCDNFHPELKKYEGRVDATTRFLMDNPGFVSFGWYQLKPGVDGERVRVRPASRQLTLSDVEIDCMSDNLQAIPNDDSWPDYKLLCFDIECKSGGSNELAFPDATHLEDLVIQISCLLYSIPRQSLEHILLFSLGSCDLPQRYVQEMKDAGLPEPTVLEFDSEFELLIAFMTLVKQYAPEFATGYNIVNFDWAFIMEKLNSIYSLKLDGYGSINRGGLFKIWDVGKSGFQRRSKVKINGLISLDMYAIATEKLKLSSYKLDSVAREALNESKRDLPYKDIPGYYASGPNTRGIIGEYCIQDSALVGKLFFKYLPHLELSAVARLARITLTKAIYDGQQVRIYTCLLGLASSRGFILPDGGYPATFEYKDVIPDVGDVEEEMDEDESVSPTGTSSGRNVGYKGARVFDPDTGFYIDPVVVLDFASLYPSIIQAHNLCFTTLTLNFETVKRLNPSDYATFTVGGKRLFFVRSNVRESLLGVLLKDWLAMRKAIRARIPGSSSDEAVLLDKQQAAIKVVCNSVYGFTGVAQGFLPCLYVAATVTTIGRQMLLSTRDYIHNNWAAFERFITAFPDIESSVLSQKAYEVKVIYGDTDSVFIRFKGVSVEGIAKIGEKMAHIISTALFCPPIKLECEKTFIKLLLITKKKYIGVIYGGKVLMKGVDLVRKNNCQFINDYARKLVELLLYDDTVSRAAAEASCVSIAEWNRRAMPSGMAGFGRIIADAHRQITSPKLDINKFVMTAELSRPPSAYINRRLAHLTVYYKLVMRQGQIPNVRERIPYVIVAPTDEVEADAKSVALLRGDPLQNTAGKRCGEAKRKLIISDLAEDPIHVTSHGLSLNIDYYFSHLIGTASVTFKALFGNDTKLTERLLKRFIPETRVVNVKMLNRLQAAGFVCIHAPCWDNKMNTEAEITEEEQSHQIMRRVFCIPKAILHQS
T2 sequence (P08546 whole entry): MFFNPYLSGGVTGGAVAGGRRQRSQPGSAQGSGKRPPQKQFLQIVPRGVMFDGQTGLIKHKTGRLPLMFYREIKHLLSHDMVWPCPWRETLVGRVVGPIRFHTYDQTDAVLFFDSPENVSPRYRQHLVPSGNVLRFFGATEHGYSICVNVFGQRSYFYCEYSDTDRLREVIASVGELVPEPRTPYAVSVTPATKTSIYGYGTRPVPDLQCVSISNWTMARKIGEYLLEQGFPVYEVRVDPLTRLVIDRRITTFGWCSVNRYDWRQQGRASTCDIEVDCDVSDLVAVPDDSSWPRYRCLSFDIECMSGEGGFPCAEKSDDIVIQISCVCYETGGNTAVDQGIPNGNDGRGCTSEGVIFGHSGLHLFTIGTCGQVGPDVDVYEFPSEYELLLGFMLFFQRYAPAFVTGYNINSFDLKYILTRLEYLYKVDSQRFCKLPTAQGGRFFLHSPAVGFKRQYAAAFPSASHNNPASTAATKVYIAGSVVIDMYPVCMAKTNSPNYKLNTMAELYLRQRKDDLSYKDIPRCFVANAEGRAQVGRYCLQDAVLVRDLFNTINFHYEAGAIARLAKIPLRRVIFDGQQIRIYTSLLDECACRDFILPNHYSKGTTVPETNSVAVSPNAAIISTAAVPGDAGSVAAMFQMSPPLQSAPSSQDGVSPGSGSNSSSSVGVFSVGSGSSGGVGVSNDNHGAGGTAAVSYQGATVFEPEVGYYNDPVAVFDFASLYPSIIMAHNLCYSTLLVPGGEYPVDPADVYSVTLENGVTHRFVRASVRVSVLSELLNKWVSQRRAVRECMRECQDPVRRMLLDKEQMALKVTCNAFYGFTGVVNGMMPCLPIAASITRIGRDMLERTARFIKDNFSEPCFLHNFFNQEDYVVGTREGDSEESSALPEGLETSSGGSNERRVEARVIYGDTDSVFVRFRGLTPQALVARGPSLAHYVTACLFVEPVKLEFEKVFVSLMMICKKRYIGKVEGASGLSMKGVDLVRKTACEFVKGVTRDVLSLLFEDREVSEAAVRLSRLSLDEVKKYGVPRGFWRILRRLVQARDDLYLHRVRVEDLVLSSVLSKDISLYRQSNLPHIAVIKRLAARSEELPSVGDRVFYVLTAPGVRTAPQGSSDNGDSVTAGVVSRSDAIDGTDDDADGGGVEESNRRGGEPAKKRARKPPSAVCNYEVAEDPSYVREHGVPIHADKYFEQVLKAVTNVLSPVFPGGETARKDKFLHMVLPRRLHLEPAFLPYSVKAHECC

| SMILES | EC50 [1, 6] [nM] | EC50 [2, 7] [nM] | IC50 [3] [nM] | IC50 [4] [nM] | EC50 [5, 8] [nM] | EC50 [5, 9] [nM] | EC50 [2, 10] [nM] | EC50 ([1]; Human betaherpesvirus 5, AD169, MRC5, read-out: HCMV Cell (EC50)) [nM] | EC50 ([2]; Human alphaherpesvirus 3, MeWo, read-out: VZV Cell (EC50) MEWO 10%) [nM] | EC50 ([5]; Human alphaherpesvirus 1, Vero, read-out: HSV1 Cell (EC50) VERO 10%) [nM] | EC50 ([1]; viral qPCR assay of Example 191, read-out: HCMV Cell (EC50)) [nM] | EC50 ([2]; MRC5 cells, 10%, read-out: VZV Cell (EC50) MRC5 10%) [nM] | EC50 ([5]; MRC5 cells, 10%, read-out: HSV1 Cell (EC50) MRC5 10%) [nM] |
| --- | --- | --- | --- | --- | --- | --- | --- | --- | --- | --- | --- | --- | --- |
| Cn1cc(-c2cnc(C(=O)NCc3ccc(C#N)c(F)c3)cc2O[C@H]2CCN3C(=O)OC[C@@H]3C2)cn1 [Compound 93] | 66.7 | 118 | 1.99 | 1.42 | 124 | 241 | – | – | – | – | – | – | – |
| Cn1cc(-c2cnc(C(=O)NCc3ccc(Cl)cc3)cc2OC2CCC(C#N)CC2)cn1 (stereo not drawn) [Compound 168] | 1110 | – | 67.6 | 104 | – | 529 | 590 | – | – | – | – | – | – |
| O=C(NCc1ccc(Cl)cc1)c1cc(O[C@H]2CCN3C(=O)OC[C@@H]3C2)c(CN2CCCOCC2)cn1 [Compound 138] | 296 | – | 13.7 | 65.8 | – | 420 | 198 | – | – | – | – | – | – |
| Cc1ncc(-c2cnc(C(=O)NCc3ccc(Cl)cc3)cc2O[C@H]2CCN3C(=O)OC[C@@H]3C2)s1 [Compound 42] | 58.9 | 79.9 | 3.76 | 5.3 | 51.7 | 40.8 | 48.5 | – | – | – | – | – | – |
| N#Cc1cnc(C(=O)NCc2ccc(Cl)cc2)cc1O[C@H]1CCN2C(=O)OCC[C@@H]2C1 [Compound 164] | 436 | 684 | 2.37 | 18.3 | 469 | – | – | – | – | – | – | – | – |
| C[C@@H]1CN(C)CCN1c1cc(C(=O)NCc2ccc(Cl)cc2)ncc1OCC(F)(F)F [Compound 176] | – | – | 115 | 218 | – | – | – | 2480 | 1240 | 2180 | – | – | – |
| Cn1cc(-c2cnc(C(=O)NCc3ccc(C#N)cc3)cc2O[C@H]2CCN3C(=O)OC[C@@H]3C2)cn1 (racemic) [Compound 95] | 181 | – | 23.9 | 38.8 | – | 1920 | 241 | – | – | – | – | – | – |
| CC(=O)N1CCC(Oc2cc(C(=O)NCc3ccc(Cl)cc3)ncc2-c2ccns2)CC1 [Compound 46] | 148 | 113 | 3.98 | 20.8 | 92.1 | – | – | – | – | – | – | – | – |
| CC(=O)N1CCC(Oc2cc(C(=O)NCc3ccc(Cl)cc3)ncc2-c2nnc(C)s2)CC1 [Compound 54] | 768 | 181 | 14.9 | 61.6 | 241 | – | – | – | – | – | – | – | – |
| O=C(NCc1ccc(Cl)cc1)c1cc(O[C@H]2CCN3C(=O)CCC[C@@H]3C2)c(-c2cnn(C(F)F)c2)cn1 (single isomer, unassigned) [Compound 161-1] | 1330 | – | 47.3 | 130 | – | 461 | 210 | – | – | – | – | – | – |
| O=C(NCc1ccc(Cl)cc1)c1cc(O[C@H]2CCN3C(=O)OC[C@@H]3C2)c(-c2cnn(C3CC3)c2)cn1 [Compound 19] | 214 | – | 9.12 | 17.4 | – | 316 | 105 | – | – | – | – | – | – |
| CC(=O)N1CCC(Oc2cc(C(=O)NCc3ccc(Cl)cc3)ncc2-c2nnc(C3CC3)s2)CC1 [Compound 57] | 133 | 203 | 12.7 | 86.9 | 110 | – | – | – | – | – | – | – | – |
| Cn1cc(-c2cnc(C(=O)NCc3ccc(Cl)cc3)cc2O[C@H]2CCN3C(=O)OC[C@@H]3C2)cn1 [Compound 29] | 107 | 109 | 7.85 | 9.24 | 102 | 184 | 51.6 | – | – | – | – | – | – |
| O=C(NCc1ccc(Cl)cc1)c1cc(O[C@H]2CCN3C(=O)OC[C@@H]3C2)c(-c2cnco2)cn1 [Compound 24] | 98.7 | 121 | ≤ 0.444 | 1.6 | 56.4 | – | – | – | – | – | – | – | – |
| O=C(NCc1ccc(Cl)cc1)c1cc(O[C@H]2CCN3C(=O)OC[C@@H]3C2)c(-c2cnc(C3CC3)o2)cn1 [Compound 33] | 121 | 194 | 2.72 | 6.24 | 125 | – | – | – | – | – | – | – | – |
| CC(C)(O)C1CCN(c2cnc(C(=O)NCc3ccc(Cl)cc3)cc2O[C@H]2CCN3C(=O)OC[C@@H]3C2)C1 (single isomer, unassigned) [Compound 117-2] | – | – | 3.05 | 12.1 | – | – | – | – | – | – | 211 | 9100 | 4780 |
| O=C(NCc1ccc(Cl)cc1)c1cc(O[C@H]2CCN3C(=O)OC[C@@H]3C2)c(CN2CCCC(O)C2)cn1 (mixture of isomers) [Compound 140] | 855 | 2560 | 54.6 | 62 | – | 4320 | – | – | – | – | – | – | – |
| Cc1nsc(-c2cnc(C(=O)NCc3ccc(Cl)cc3)cc2O[C@H]2CCN3C(=O)OC[C@@H]3C2)n1 [Compound 39] | 86.7 | 98 | 1.25 | 10.3 | 60.1 | – | – | – | – | – | – | – | – |
| O=C(NCc1ccc(Cl)cc1)c1cc(O[C@H]2CCN3C(=O)OC[C@@H]3C2)c(-c2ccn(CC(F)(F)F)n2)cn1 [Compound 14] | 563 | – | 40.9 | 43.9 | – | 319 | 234 | – | – | – | – | – | – |
| CC(=O)N1CCC(Oc2cc(C(=O)NCc3ccc(Cl)cc3)ncc2-c2cnn(CCO)c2)CC1 [Compound 62] | 1580 | – | 67.5 | 222 | – | 4880 | 162 | – | – | – | – | – | – |
| O=C(NCc1ccc(Cl)cc1)c1cc(O[C@H]2CCN3C(=O)OC[C@@H]3C2)c(C2CC(F)(F)C2)cn1 [Compound 108] | 844 | 1620 | 26.4 | 45.1 | 646 | – | – | – | – | – | – | – | – |
| O=C(NCc1ccc(Cl)nc1)c1cc(O[C@H]2CCN3C(=O)OC[C@@H]3C2)c(-c2cnn(C(F)F)c2)cn1 [Compound 86] | 754 | – | 20.6 | 189 | – | 1450 | 825 | – | – | – | – | – | – |
| CC(C)Cn1cc(-c2cnc(C(=O)NCc3ccc(Cl)cc3)cc2O[C@H]2CCN3C(=O)OC[C@@H]3C2)cn1 (racemic) [Compound 11] | 685 | – | 51.2 | 70.5 | – | 813 | 712 | – | – | – | – | – | – |
| Cn1cnc(-c2cnc(C(=O)NCc3ccc(Cl)cc3)cc2O[C@H]2CCN3C(=O)OC[C@@H]3C2)c1 [Compound 38] | 72.8 | – | 6.53 | 11.6 | ≥ 80200 | 194 | 53.2 | – | – | – | – | – | – |
| COC1CN(c2cnc(C(=O)NCc3ccc(Cl)cc3)cc2O[C@H]2CCN3C(=O)OC[C@@H]3C2)C1 [Compound 120] | 210 | 441 | 2.6 | 16.2 | 434 | – | – | – | – | – | – | – | – |
| O=C(NCc1ccc(Cl)cc1)c1cc(O[C@H]2CCN3C(=O)OC[C@@H]3C2)c(-c2cnn(C(F)F)c2)cn1 [Compound 3] | 180 | 170 | 7.39 | 10.3 | 127 | 70.9 | 112 | – | – | – | – | – | – |
